Patent US20230085307A1, “PYRIDAZINONE COMPOUND AND HERBICIDE” (NISSAN CHEMICAL CORPORATION, priority 2019, published 2023)

Columns and labels:
wild oat = assay: Test Example 4: herbicidal effect by soil treatment (Table 19, symbol I); type: in vivo, wild oat (Avena fatua); conditions: amount of applied herbicide 320 g/ha
How it was run: (§1)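 Seeds were sown in sterilized diluvial soil and covered with about 1.5 cm of soil. An emulsion formulation diluted with water to a predetermined herbicide amount was sprayed evenly onto the soil surface. Plants grew in a greenhouse at 25° C. to 30° C., and the effect was scored three weeks after application using criteria from an earlier test.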

velvetleaf = assay: Test Example 5: herbicidal effect by foliage application, plastic box (Table 20, symbol M); type: in vivo, velvetleaf (Abutilon theophrasti); conditions: foliage application, AAH 320 g/ha, evaluated three weeks after application
How it was run: (§2)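 Plants sown in sterilized diluvial soil and grown 14 days in a greenhouse at 25° C to 30° C, then sprayed on the foliage with the compound's emulsion diluted in water to a predetermined herbicide amount. Injury to weeds and crops scored three weeks after application on a visual rating scale.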

redroot pigweed = assay: Test Example 5: herbicidal effect by foliage application, plastic box (Table 20, symbol N); type: in vivo, redroot pigweed (Amaranthus retroflexus); conditions: foliage application, AAH 320 g/ha, evaluated three weeks after application
How it was run: as §2

green foxtail = assay: Test Example 5: herbicidal effect by foliage application, plastic box (Table 20, symbol G); type: in vivo, green foxtail (Setaria viridis); conditions: foliage application, AAH 320 g/ha, evaluated three weeks after application
How it was run: as §2

persian speedwell [1] = assay: Test Example 4: herbicidal effect by soil treatment (Table 19, symbol R); type: in vivo, Persian speedwell (Veronica persica); conditions: amount of applied herbicide 320 g/ha
How it was run: as §1

persian speedwell [2] = assay: Test Example 5: herbicidal effect by foliage application, plastic box (Table 20, symbol R); type: in vivo, Persian speedwell (Veronica persica); conditions: foliage application, AAH 320 g/ha, evaluated three weeks after application
How it was run: as §2

barnyard grass = assay: Test Example 5: herbicidal effect by foliage application, plastic box (Table 20, symbol H); type: in vivo, barnyard grass (Echinochloa crus-galli); conditions: foliage application, AAH 320 g/ha, evaluated three weeks after application
How it was run: as §2

Italian ryegrass = assay: Test Example 4: herbicidal effect by soil treatment (Table 19, symbol K); type: in vivo, Italian ryegrass (Lolium multiflorum); conditions: amount of applied herbicide 320 g/ha
How it was run: as §1

Japanese bulrush = assay: Test Example 2: herbicidal activity, application during weed generation under submerged conditions (Table 17, symbol B); type: in vivo, Japanese bulrush (Schoenoplectus juncoides); conditions: AAH 320 g/ha; application during weed generation, submerged conditions
How it was run: (§3)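 Effect on each weed is rated three weeks post-treatment, using the same scoring criteria as the preceding test. Plants grow from mixed-sown seed in flooded alluvial soil (4 cm water) at 25° C. to 30° C., and are treated at one to two leaves with diluted emulsion dropped onto the water.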

oval-leafed pondweed [3] = assay: Test Example 1: herbicidal activity, application before weed generation under submerged conditions (Table 16, symbol C); type: in vivo, oval-leafed pondweed (Monochoria vaginalis); conditions: 320 g/ha applied herbicide
How it was run: (§4)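 Submerged Wagner pots (alluvial soil, 4 cm water) sown with weed seeds and planted with 2.5-leaf rice seedlings; emulsifiable concentrate diluted in water applied to water surface on sowing day. Held in greenhouse at 25-30 °C; injury scored 0-5 by herbicidal rate after three weeks.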

late watergrass = assay: Test Example 1: herbicidal activity, application before weed generation under submerged conditions (Table 16, symbol A); type: in vivo, late watergrass (Echinochloa oryzicola); conditions: 320 g/ha applied herbicide
How it was run: as §4

oval-leafed pondweed [4] = assay: Test Example 2: herbicidal activity, application during weed generation under submerged conditions (Table 17, symbol C); type: in vivo, oval-leafed pondweed (Monochoria vaginalis); conditions: AAH 320 g/ha; application during weed generation, submerged conditions
How it was run: as §3

windgrass = assay: Test Example 4: herbicidal effect by soil treatment (Table 19, symbol L); type: in vivo, windgrass (Apera spica-venti); conditions: amount of applied herbicide 320 g/ha
How it was run: as §1

chickweed = assay: Test Example 5: herbicidal effect by foliage application, plastic box (Table 20, symbol P); type: in vivo, common chickweed (Stellaria media); conditions: foliage application, AAH 320 g/ha, evaluated three weeks after application
How it was run: as §2

rice flat sedge = assay: Test Example 3: herbicidal effect by foliage application, Wagner pot (Table 18, symbol E); type: in vivo, rice flat sedge (Cyperus iria); conditions: amount of applied herbicide 320 g/ha
How it was run: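 Plants were sown in alluvial soil held under 0.1–0.5 cm standing water and grown 14 days in a greenhouse at 25–30 °C. An emulsifiable formulation, water-diluted to the set dose, was then sprayed onto the foliage, and effects were scored three weeks later using previously defined criteria.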

southern crabgrass = assay: Test Example 5: herbicidal effect by foliage application, plastic box (Table 20, symbol F); type: in vivo, southern crabgrass (Digitaria ciliaris); conditions: foliage application, AAH 320 g/ha, evaluated three weeks after application
How it was run: as §2

| Structure (SMILES) | herbicidal effect on I: wild oat (wild oat) | M: velvetleaf, herbicidal effect (criteria 0-5) (velvetleaf) | N: redroot pigweed, herbicidal effect (criteria 0-5) (redroot pigweed) | G: green foxtail, herbicidal effect (criteria 0-5) (green foxtail) | herbicidal effect on R: persian speedwell (persian speedwell [1]) | R: persian speedwell, herbicidal effect (criteria 0-5) (persian speedwell [2]) | H: barnyard grass, herbicidal effect (criteria 0-5) (barnyard grass) | herbicidal effect on K: Italian ryegrass (Italian ryegrass) | herbicidal effect rating, B: Japanese bulrush (Japanese bulrush) | Herbicidal effect on C: oval-leafed pondweed (grade 0-5) (oval-leafed pondweed [3]) | Herbicidal effect on A: late watergrass (grade 0-5) (late watergrass) | herbicidal effect rating, C: oval-leafed pondweed (oval-leafed pondweed [4]) | herbicidal effect on L: windgrass (windgrass) | P: chickweed, herbicidal effect (criteria 0-5) (chickweed) | herbicidal effect on E: rice flat sedge (rice flat sedge) | F: southern crabgrass, herbicidal effect (criteria 0-5) (southern crabgrass) |
| --- | --- | --- | --- | --- | --- | --- | --- | --- | --- | --- | --- | --- | --- | --- | --- | --- |
| C=CCOC(=O)Oc1c(C)nn(C)c(=O)c1-c1c(-c2ccc(OC(F)F)cc2)sc2ccc(F)cc12 [2-294] | 1 (Herbicidal rate of 5% or more and less than 20%) | 5 (Herbicidal rate of 90% or more (almost completely withered)) | 5 (Herbicidal rate of 90% or more (almost completely withered)) | 5 (Herbicidal rate of 90% or more (almost completely withered)) | 5 (Herbicidal rate of 90% or more (almost completely withered)) | 5 (Herbicidal rate of 90% or more (almost completely withered)) | 5 (Herbicidal rate of 90% or more (almost completely withered)) | 5 (Herbicidal rate of 90% or more (almost completely withered)) | 3 (Herbicidal rate of 40% or more and less than 70%) | 4 (Herbicidal rate of 70% or more and less than 90%) | 5 (Herbicidal rate of 90% or more (almost completely withered)) | 3 (Herbicidal rate of 40% or more and less than 70%) | 4 (Herbicidal rate of 70% or more and less than 90%) | 5 (Herbicidal rate of 90% or more (almost completely withered)) | 5 (Herbicidal rate of 90% or more (almost completely withered)) | 5 (Herbicidal rate of 90% or more (almost completely withered)) |
| COc1cccc(S(=O)(=O)Oc2c(C)nn(C)c(=O)c2-c2c(-c3ccc(OC(F)F)cc3)sc3ccc(F)cc23)c1 [2-313] | 0 (Herbicidal rate of 5% or less (almost no effect)) | 5 (Herbicidal rate of 90% or more (almost completely withered)) | 5 (Herbicidal rate of 90% or more (almost completely withered)) | 5 (Herbicidal rate of 90% or more (almost completely withered)) | 5 (Herbicidal rate of 90% or more (almost completely withered)) | 5 (Herbicidal rate of 90% or more (almost completely withered)) | 5 (Herbicidal rate of 90% or more (almost completely withered)) | 5 (Herbicidal rate of 90% or more (almost completely withered)) | 3 (Herbicidal rate of 40% or more and less than 70%) | 0 (Herbicidal rate of 5% or less (almost no effect)) | 2 (Herbicidal rate of 20% or more and less than 40%) | 3 (Herbicidal rate of 40% or more and less than 70%) | 0 (Herbicidal rate of 5% or less (almost no effect)) | 5 (Herbicidal rate of 90% or more (almost completely withered)) | 5 (Herbicidal rate of 90% or more (almost completely withered)) | 4 (Herbicidal rate of 70% or more and less than 90%) |
| C#CCSCc1ccc(-c2sc3ccc(F)cc3c2-c2c(O)c(C)nn(C)c2=O)cc1 [2-325] | 0 (Herbicidal rate of 5% or less (almost no effect)) | 5 (Herbicidal rate of 90% or more (almost completely withered)) | 5 (Herbicidal rate of 90% or more (almost completely withered)) | 5 (Herbicidal rate of 90% or more (almost completely withered)) | 5 (Herbicidal rate of 90% or more (almost completely withered)) | 5 (Herbicidal rate of 90% or more (almost completely withered)) | 5 (Herbicidal rate of 90% or more (almost completely withered)) | 4 (Herbicidal rate of 70% or more and less than 90%) | 2 (Herbicidal rate of 20% or more and less than 40%) | 0 (Herbicidal rate of 5% or less (almost no effect)) | 3 (Herbicidal rate of 40% or more and less than 70%) | 0 (Herbicidal rate of 5% or less (almost no effect)) | 0 (Herbicidal rate of 5% or less (almost no effect)) | 5 (Herbicidal rate of 90% or more (almost completely withered)) | 5 (Herbicidal rate of 90% or more (almost completely withered)) | 5 (Herbicidal rate of 90% or more (almost completely withered)) |
